Laboratory results as given in patent US9682070B2, “Method and compositions for treatment or prevention of inflammatory conditions” (University of Rochester, priority 2007, dated 2017).
Entries after “also recorded” stand apart in the source; their conditions may differ.

Assays:
[1] = system: IκBα phosphorylation and degradation; experiment: Western blot of TNFα-induced IκBα phosphorylation and degradation in VSMCs; assay type: cell-based; conditions: rat aortic VSMCs; TNFα 10 ng/ml; vinpocetine 50 μM, nifedipine 30 μM, IC86340 15 μM, EGTA 2 mM, BAPTA/AM 30 μM
Protocol: (§1) Rat aortic VSMCs were treated with TNFα (10 ng/ml) for different time periods (0-30 minutes) as indicated in the presence or absence of vinpocetine ([…]). Western Blotting analysis was carried out to evaluate the levels of phosphorylated IκBα, total IκBα- and β-actin. […] IKK kinase activity was analyzed by an immune complex kinase assay. […] VSMCs were treated with TNFα for 10 min in the presence of various doses of vinpocetine as indicated. FIG. 8D illustrates the relative IKK activity as indicated. Intensities of the GST-IκBα bands in the autoradiogram were measured by densitometric scanning. Results were normalized to the control ([vinpocetine]=0) that is arbitrarily set to 100%. *p<0.05, **p<0.01 vs. vitipocetine at zero. FIGS. 8E-H illustrate the effects of vinpocetine on NF-κB activation induced by expressing constitutive active form of either MEKK1 (CA-MEKK1) (FIG. 8E), IKKα (CA-IKKα) (FIG. 8F), IKKβ (CA-IKKβ) (FIG. 8G), or WT p65 (FIG. 8H) in VSMCs.
(§2) Rat aortic VSMCs were treated with TNFα (10 ng/ml) for 10 minutes in the presence of either 50 μM vinpocetine, 30 μM nifedipine (Ca^2+ channel blocker), 15 μM IC86340 (PDE1 inhibitor), 2 mM EGTA (extracellular Ca^2+ chelator), or 30 μM BAPTA/AM (intracellular Ca^2+ chelator). […] Western Blotting analysis was carried out to evaluate the levels of phosphorylated IκBα total IκBα and β-actin. Data represent at least three independent experiments.
Cells lysates were prepared in the buffer containing 20 mM Tris-HCl (pH8.0), 0.5 M NaCl, 0.25% Triton X-100, 1 mM EDTA, 1 mM EGTA, 10 mM-glycerophosphate, 10 mM NaF, 100 μM Na3VO4, 1 mM benzamidine, 2 μM PMSF, 1 mM DTT and protease inhibitor cocktail (Sigma, MO. USA), by scraping, sonication, and centrifugation at 12,000 g for 15 min. Supernatant were collected and then subjected to SDS-PAGE and Western blot analysis with indicated antibodies.

IKK [2] = experiment: IKK immune complex kinase assay from TNFα-treated VSMCs; assay type: cell-based, rat; conditions: for effect on the ability of vinpocetine on IKK kinase activity, IκB phosphorylation, IκB degradation or NF-κB-dependent transcriptional activity: co-treatment with vinpocetine; for TNFα-induced IKK kinase activity: rat aortic VSMCs treated with TNFα 10 min in the presence of compound
Protocol: as §1, §2
Cell lysates were prepared as described above. 1 mg of cell lysates were incubated with 1-2 μg of anti-IKKα (Santa Cruz, Calif., USA) for 1-2 h, followed by 50μl of 50% of slurry protein A/G plus-Agarose for another 1 h or overnight at 4° C. Immunoprecipitants were then washed two times with lysis buffer and once with kinase buffer without ATP. In vitro kinase assay were performed in kinase buffer containing 20 mM HEPES (pH 7.7), 2 mM MgCl2, 2 mM MnCl2, 10 μM ATP, 5 μCi of [γ-^32P]ATP (Amersham Biosciences, NJ, USA), 10 mM glycerophosphate, 10 mM NaF, 100 μM Na3VO4, 1 mM benzamidine, 2 μM PMSF, 1 mM DTT and protease inhibitor cocktail (Sigma, MO, USA) at 30° C. for 30-60 min, in the presence of substrate GST-IκBα (AA 1-54) (kindly provided by Dae-Myung Jue, Catholic University of Korea). Proteins were separated by 12% SDS-PAGE and subjected to autoradiography. Phosphorylation of GST-IκBα was quantified in NIH Image 1.60.
Because IKK is known as the major upstream kinase for IκBα phosphorylation and degradation, whether vinpocetine inhibits IκB phosphorylation and degradation via inhibition of IKK was determined. TNFα-induced activation of IKK was confirmed by performing IKK kinase assay in TNFα-stimulated VSMCs. The crude cell lysates from treated VSMCs were first immunoprecipitated with an anti-IKKα antibody and IKK kinase activity was then measured in vitro with IKK immune complexes incubated with the substrate GST-IκBα in the presence of [γ-^32P]-ATP.

[3] = system: NF-κB-dependent promoter activity; experiment: NF-κB-Luc dual luciferase reporter assay in rat aortic VSMCs
[4] = system: pro-inflammatory mediators at mRNA levels; experiment: Q-PCR of TNFα-induced pro-inflammatory mediators in A549 cells; assay type: cell-based, human; conditions: TNFα 10 ng/ml 6 hours, vinpocetine 50 μM
Protocol: (§3) Expression of TNFα, IL-1β, IL-8, MCP-1 and VCAM-1, ICAM-1, MIP-1 at mRNA levels were measured by Real-time quantitative RT-PCR (Q-PCR).
(§4) Total RNA was isolated with TRIzol reagent (Invitrogen) by following the manufacturer's instructions. For the reverse transcription reaction, TaqMan reverse transcription reagents (Applied Biosystems) were used. In brief, the reverse transcription reaction was performed for 60 min at 37° C., followed by 60 min at 42° C. by using oligo (dT) and random hexamers. PCR amplifications were performed by using SYBR Green Universal Master Mix. In brief, reactions were performed in duplicate containing 2× Universal Master Mix, 1 μl of template cDNA and 100 nM primers in a final volume of 12.5 μl, and they were analyzed in a 96-well optical reaction plate (Applied Biosystems). The relative quantities of mRNAs were obtained by using the comparative Ct method and were normalized with predeveloped Taqman assay reagent rat or mouse glyceraldehydes-3-phosphate dehydrogenase or human cyclophilin as an endogenous control (Applied Biosystems).

[5] = system: pro-inflammatory mediators at mRNA levels; experiment: Q-PCR of TNFα-induced pro-inflammatory mediators in HUVECs; assay type: cell-based, human; conditions: TNFα 10 ng/ml 6 hours, vinpocetine 50 μM
Protocol: as §3, §4

[6] = system: NF-κB-dependent promoter activity; experiment: IL-1- and LPS-induced NF-κB-dependent promoter activity; assay type: cell-based
[7] = system: cell morphology and viability; experiment: Cytotoxic effects on cell morphology and viability; assay type: cell-based; conditions: at the tested doses
NF-κB activation = experiment: NF-κB luciferase activity induced by CA-MEKK1, CA-IKKα, CA-IKKβ or WT p65 in VSMCs; assay type: cell-based, rat
[8] = system: pro-inflammatory mediators at mRNA levels; experiment: Q-PCR of TNFα-induced pro-inflammatory mediators in RAW264.7; assay type: cell-based, mouse; conditions: TNFα 10 ng/ml 6 hours, vinpocetine 50 μM
Protocol: as §3, §4

[9] = patients, literature; cited from earlier work
[10] = system: TNFα-induced lung inflammation; experiment: Mouse model of lung inflammation induced by TNFα; assay type: in vivo; conditions: mice; TNFα i.t. (500 ng per mouse)
Protocol: Lung tissues were collected and then stored at -80° C. for mRNA expression analysis. For polymorphonuclear neutrophil (PMN) recruitment analysis, broncho-alveolar lavage (BAL) was performed by cannulating the trachea with sterilized PBS, and cells from BAL was stained with Hemacolor (EM Science) after cytocentrifugation (Shandon Cytospin4, Thermo Electronic Co.). Three mice were used for each inoculation group. All animal experiments were approved by the institutional Animal Care and Use Committee at University of Rochester.

[11] = system: U937 monocytes adhering to HUVECs; experiment: Monocyte adhesion assay; assay type: cell-based, human; conditions: 50 μM vinpocetine 30 min, then TNFα 10 ng/ml 6 hours
[12] = system: pro-inflammatory mediators at mRNA levels; experiment: Q-PCR of TNFα-induced pro-inflammatory mediators in rat aortic VSMCs; assay type: cell-based; conditions: TNFα 10 ng/ml 6 hours, vinpocetine 50 μM
Protocol: as §3, §4

[13] = system: LPS-induced lung inflammation; experiment: Mouse model of lung inflammation induced by LPS; assay type: in vivo; conditions: mice
IKK [14] = experiment: In vitro IKK kinase assay in the presence of cell lysates from vinpocetine-treated VSMCs; assay type: biochemical, rat
Protocol: Intensities of the GST-IκBα bands in the autoradiogram were measured by densitometric scanning.

IKK [15] = experiment: In vitro IKK kinase assay, compound applied directly to the IKK immune complex; assay type: biochemical, rat; conditions: IKK immune complex in the test tube
[16] = system: monocyte chemotaxis to VSMCs; experiment: Monocyte chemotaxis assay (transwell migration, Boyden chamber); assay type: cell-based, rat; conditions: various doses; TNFα 10 ng/ml 9 hours; VSMC-conditional medium

For `CC(=O)OCOC(=O)CN(CC(=O)OCOC(C)=O)c1ccccc1OCCOc1ccccc1N(CC(=O)OCOC(C)=O)CC(=O)OCOC(C)=O` [BAPTA/AM], the “TNFα-induced IκBα phosphorylation and degradation” value [1] was “none of them exhibited any significant inhibitory effects”, the “effect on the ability of vinpocetine on IKK kinase activity, IκB phosphorylation, IκB degradation or NF-κB-dependent transcriptional activity” value (IKK [2]) was “did not significantly affect” and the “TNFα-induced IKK kinase activity” value (IKK [2]) was “none of them exhibited any significant inhibitory effects”.

For `O=C(O)CN(CCOCCOCCN(CC(=O)O)CC(=O)O)CC(=O)O` [EGTA], the “TNFα-induced IκBα phosphorylation and degradation” value [1] was “none of them exhibited any significant inhibitory effects”, the “effect on the ability of vinpocetine on IKK kinase activity, IκB phosphorylation, IκB degradation or NF-κB-dependent transcriptional activity” value (IKK [2]) was “did not significantly affect” and the “TNFα-induced IKK kinase activity” value (IKK [2]) was “none of them exhibited any significant inhibitory effects”.

For `NC1=N[C@H](O)[C@H]2[C@H]3O[C@]4(O)O[C@@H]([C@@H](O)[C@@]2(N1)[C@@H]4O)[C@]3(O)CO` [tetrodotoxin], the “effect on the effect of vinpocetine on NF-κB-dependent transcription” value [3] was “did not alter”.

For `CCOC(=O)C1=C[C@]2(CC)CCCN3CCc4c(n1c1ccccc41)[C@@H]32` [vinpocetine, (+)-vinpocetine], the “TNFα-induced expression of TNFα, IL-1β and IL-8 mRNA” value [4] was “inhibit”, the “TNFα-induced expression of TNFα, IL-1β, IL-8, MCP-1, VCAM-1 and ICAM-1 mRNA” value [5] was “inhibit” and the “IL-1- and LPS-induced NF-κB-dependent promoter activity” value [6] was “inhibited”. The “TNFα-induced IκBα phosphorylation and degradation” value [1] was “markedly inhibited”, the “cytotoxic effects on cell morphology and viability” value [7] was “no significant cytotoxic effects” and the “NF-κB activation induced by CA-IKKα” value (NF-κB activation; constitutively active IKKα) was “inhibited”. The “NF-κB activation induced by CA-IKKβ” value (NF-κB activation; constitutively active IKKβ) was “inhibited”, the “CA-MEKK1-induced NF-κB activation” value (NF-κB activation; constitutively active MEKK1) was “significantly inhibited” and the “TNFα-induced expression of TNFα, IL-1β and MIP-2 mRNA” value [8] was “inhibit”. For the same molecule, the “side effects, toxicity or contraindications at the therapeutic doses” value [9] was “no reports of significant side effects, toxicity or contraindications”, the “induction of inflammatory mediators and PMN infiltration in the lungs” value [10] was “also inhibited” and the “TNFα-induced NF-κB-dependent promoter activity” value ([3]; rat aortic VSMCs, TNFα 10 ng/ml 6 hours, various doses) was “potently inhibited”. For the same molecule, the “monocyte adhesion to HUVECs” value [11] was “markedly inhibited”, the “TNFα-induced expression of TNFα, IL-1β, IL-8, MCP-1 and VCAM-1 mRNA” value [12] was “potently inhibited” and the “induction of TNFα, IL-1β and MIP-2 mRNA in the lungs” value ([13]; LPS 2 μg/mouse i.t., vinpocetine 2.5, 5, 10 mg/kg i.p.) was “dose-dependently inhibited; also recorded: significantly inhibited”. For the same molecule, the “PMN infiltration in BAL fluids” value ([13]; LPS i.t., vinpocetine 10 mg/kg i.p.) was “significantly inhibited”, the “inhibition of IKK activity by cell lysates from vinpocetine-treated cells” value (IKK [14]; cell lysates) was 50% and the “vinpocetine treatment concentration of lysate required for a significant effect on IKK inhibition ex vivo” value (IKK [14]; cell lysates) was 100 µM. For the same molecule, the “IKK activity in the presence of cell lysates from vinpocetine-treated cells” value (IKK [14]; lysates of VSMCs preincubated with vinpocetine) was “inhibited IKK activity”, the “TNFα-induced IKK kinase activity” value (IKK [2]) was “inhibited TNFα-induced IKK activity in a dose-dependent manner” and the “IKK activity, compound directly applied to IKK” value (IKK [15]) was “No significant inhibitory effect; also recorded: did not inhibit IKK activity”. For the same molecule, the “monocyte chemotaxis to VSMCs induced by TNFα” value [16] was “inhibited monocyte chemotaxis to VSMCs induced by TNFα in a dose-dependent manner”.
